Reference: patent US20100113613A1, “CYCLOHEXANE POLYALCOHOL FORMULATION FOR TREATMENT OF DISORDERS OF PROTEIN AGGREGATION” (WARATAH PHARMACEUTICALS, priority 2006, published 2010)

How the values were obtained:
TgCRND8 mice = conditions: despite in vitro efficacy
[1] = TgCRND8 (outbred C3H/C57B16 background), mouse, in vivo
[2] = Brain and CSF levels of inositols after one month ad libitum dosing (GC/MS), Example 2; type: in vivo, TgCRND8 mice; conditions: TgCRND8 mice, myo-cyclohexanehexyl ad libitum for one month
Protocol: Study drugs were administered either at 30 mg/kg by oral gavage, or ad libitum by dissolution in drinking water. For administration in drinking water, study drugs were dissolved at 10 mg/ml. The average amount of water taken from the bottle was 3 ml daily per animal. The average mouse weight was 33 g. […] Quantification of scyllo-cyclohexanehexyl and myo-inositol. Scyllo-cyclohexanehexyl and myo-cyclohexanehexyl levels in the brain and CSF were analyzed using gas chromatography/mass spectrometry. D-chiro-inositol was used as an internal control, as it is not present in these biological samples. Derivatization: To increase the volatility and thermal stability of these compounds and to allow for proper peak separation, these samples need to first be derivatized. The derivatization was adapted from a method presented previously (Shetty, H U, et al, 1995, Anal. Biochem. 224:279-85), where the hydroxyl groups of the cyclohexanehexyl were replaced with acetyl groups. […] Similarly, a 5-15 μl sample of CSF was mixed with 1 ml of methanol and allowed to stand at room temperature for 5 minutes. The resulting suspension was centrifuged (5 min, 5000×g) and the supernatant transferred to a glass tube (Teflon-lined cap). […] These samples were then evaporated to complete dryness (Speedvac; 60° C.). […] This mixture was flushed with dry nitrogen, securely capped and the tubes heated (80° C.; 30 min). Following derivatization, samples were cooled (RT) and the unreacted acetylating reagent evaporated using a steady stream of nitrogen gas. The derivatized products were re-dissolved (4 ml; hexane-ethyl acetate (80:20, v/v)) and washed with 1 ml of 5% sodium hydrogencarbonate solution. […] The residue was reconstituted in 100 μl; ethyl acetate. 1 μL of this was injected into the GC/MS system. A similar procedure was followed using stock concentrations of scyllo- and myo-cyclohexanehexols, which were then used to generate concentration curves (in this case the internal standard was derivatized separately and then added). GC/MS was performed using a Perkin Elmer TurboMass Autosystem XL, with a quadrupole mass spectrometer and electron ionization. Gas chromatography was performed using a 30 m×0.25 mm×0.25 μm ZB 5 (5% diphenyl/95% dimethylpolysiloxane) column, using the carrier gas Helium (1 ml/min). Samples were injected with the split set to 50 at 1 min and 0 at 5 min, the injector temperature was set at 300° C. and an initial oven temperature of 80° C. After a hold of 1 min, the temperature was ramped at 45° C./min to 187° C. and held there for 15 min. […] Sample peaks were analyzed using selected-ion monitoring, using m/z 168 for determining cyclohexanehexyl levels in the brain and CSF and m/z 373 for determining cyclohexanehexyl levels in plasma, as monitoring the larger ion reduced noise. […]

[3] = Orally administered tritiated-inositol uptake in plasma and brain (FIG. 16); type: in vivo
Protocol: FIG. 16. Bioavailability of scyllo- (solid line) and myo-inositol (dashed line) in plasma and brain, determined using orally administered tritiated-inositol uptake studies. […] Brain levels also rose rapidly and were maximal at 8 h and 32 h, respectively.

## O[C@H]1[C@H](O)[C@@H](O)[C@H](O)[C@@H](O)[C@H]1O [myo-inositol, reference compound]
TgCRND8 mice
  efficacy for the treatment of TgCRND8 mice: not shown to be effective
[1]
  increase in brain myo inositol levels over untreated controls: 1.2 fold
[2]; p<0.001
  increase of myo-cyclohexanehexyl level in brain vs untreated: 20%
[2]; p=0.35
  levels of myo-cyclohexanehexyl in CSF vs untreated: did not show any significant changes
[3]
  time of maximal brain levels: 8 h
  time of peak plasma levels post administration: 2 h
